Test results taken from patent US9706776B2, “Pesticidally active substituted 5,5-bicyclic heterocycles with sulphur containing substituents” (Syngenta Participations AG, priority 2013, dated 2017).

What was measured:
[1] = system: Anopheles stephensi (Indian malaria mosquito); assay: Example B10: Anopheles stephensi adult females on treated tissue culture plates; format: in vivo; settings: application rate 200 ppm in ethanol; after 48 h
Experimental: Example B10: Activity Against Anopheles stephensi (Indian Malaria Mosquito)
Test solutions, at an application rate of 200 ppm in ethanol, were applied to 12-well tissue culture plates. Once the deposits were dry, five, two to five day old adult female Anopheles stephensi were added to each well, and sustained with a 10% sucrose solution in a cotton wool plug. Assessment of knockdown was made one hour after introduction, and mortality was assessed at 24 and 48 hours after introduction.

[2] = system: Myzus persicae (green peach aphid); assay: Example B5: Myzus persicae feeding/residual contact, preventive, mixed population (sunflower leaf discs); format: in vivo; settings: foliar, 144 h, 6 DAT, read-out: activity (mortality and special effects)
Experimental: Example B5: Activity Against Myzus persicae (Green Peach Aphid)
(Feeding/Residual Contact Activity, Preventive), Mixed Population
Sunflower leaf discs were placed on agar in a 24-well microtiter plate and sprayed with test solutions. After drying, the leaf discs were infested with an aphid population of mixed ages. After an incubation period of 6 DAT, samples were checked for mortality and special effects (e.g. phytotoxicity).

[3] = system: Myzus persicae (green peach aphid); assay: Example B7: Myzus persicae systemic/feeding activity, curative, mixed population (pea seedlings); format: in vivo; settings: 144 h, systemic, 6 days after introduction, read-out: activity (mortality and special effects on the plant)
Text: Example B7: Activity Against Myzus persicae (Green Peach Aphid)
(Systemic/Feeding Activity, Curative), Mixed Population
Roots of pea seedlings, infested with an aphid population of mixed ages, were placed directly in the test solutions. 6 days after introduction, samples were checked for mortality and special effects on the plant.

[4] = system: Spodoptera littoralis (Egyptian cotton leaf worm); assay: Example B1: Spodoptera littoralis larvicide, feeding/residual contact, preventive (cotton leaf discs); format: in vivo; settings: foliar, 72 h, L1 larvae, 3 days after treatment, read-out: activity (mortality, repellent effect, feeding behaviour, growth regulation)
Text: Example B1: Activity Against Spodoptera littoralis (Egyptian Cotton Leaf Worm)
(§1) (Larvicide, Feeding/Residual Contact Activity, Preventive)
Cotton leaf discs were placed on agar in a 24-well microtiter plate and sprayed with test solutions. After drying, the leaf discs were infested with 5 L1 larvae. The samples were checked for mortality, repellent effect, feeding behaviour, and growth regulation 3 days after treatment (DAT).

[5] = system: Myzus persicae (green peach aphid); assay: Example B6: Myzus persicae feeding activity sachet test, mixed population; format: in vivo; settings: 120 h, 5 days after infestation
Text: Example B6: Activity Against Myzus persicae (Green Peach Aphid)
(Feeding Activity Sachet Test), Mixed Population
Test compounds were applied by pipette into 24 well plates and mixed with Sucrose solution. The plates were closed with a stretched Parafilm. A plastic stencil with 24 holes is placed onto the plate and infested pea seedlings were placed directly on the Parafilm. The infested plate is closed with a gel blotting paper and another plastic stencil and then turned upside down. 5 days after infestation the samples were checked on mortality. Application rate: 12.5 ppm.

[6] = system: Plutella xylostella (diamond back moth); assay: Example B3: Plutella xylostella larvicide, feeding/residual contact, preventive (artificial diet); format: in vivo; settings: 120 h, L2 larvae, incubation 5 days, read-out: activity (larval mortality, antifeedant, growth regulation)
Experimental: Example B3: Activity Against Plutella xylostella (Diamond Back Moth)
as §1
24-well microtiter plate (MTP) with artificial diet was treated with test solutions by pipetting. After drying, the MTPs were infested with L2 larvae (10-15 per well). After an incubation period of 5 days, samples were checked for larval mortality, antifeedant and growth regulation.

[7] = system: Diabrotica balteata (corn root worm); assay: Example B4: Diabrotica balteata larvae L2 on maize sprouts, feeding/contact, preventative; format: in vivo; settings: 120 h, incubation 5 days, read-out: activity (larval mortality, growth regulation)
Experimental: Example B4: Activity Against Diabrotica Balteata (Corn Root Worm)
(Larvae L2 on Maize Sprouts, Feeding/Contact, Preventative)
Maize sprouts, placed on an agar layer in 24 well micro titer plates were treated with test solutions by spraying. After drying, the MTPs were infested with L2 larvae (6-10 per well). After an incubation period of 5 days, samples were checked for larval mortality and growth regulation.

[8] = system: Spodoptera littoralis (Egyptian cotton leaf worm); assay: Example B2: Spodoptera littoralis systemic activity (lettuce on agar); format: in vivo; settings: 120 h, 5 days after infestation, read-out: activity (mortality, repellent effect, feeding behavior, growth regulation)
Text: Example B2: Activity Against Spodoptera littoralis (Egyptian Cotton Leaf Worm)
Test compounds were applied by pipette into 24 well plates and mixed with agar. Lettuce seeds were placed on the agar and the multi well plate is closed by another plate which contains also agar. After 7 days the roots have absorbed the compound and the lettuce has grown into the lid plate. The lettuce leaves were now cut off into the lid plate. Spodoptera eggs were pipetted through a plastic stencil on a humid gel blotting paper and the plate closed with it. The samples are checked for mortality, repellent effect, feeding behavior, and growth regulation 5 days after infestation.

[9] = system: Euschistus heros (neotropical brown stink bug); assay: Example B8: Euschistus heros on sprayed soybean leaf; format: in vivo; settings: 120 h, N-2 nymphs, 5 days after infestation
Experimental: Example B8: Activity Against Euschistus heros (Neotropical Brown Stink Bug)
Soybean leaf on agar in 24-well microtiter plates were sprayed with aqueous test solutions prepared from 10′000 ppm DMSO stock solutions. After drying the leaf were infested with N-2 nymphs. The samples were assessed for mortality 5 days after infestation.

| SMILES | control of Anopheles stephensi [1] | mortality at 400 ppm [2] | mortality at 24 ppm [3] | mortality at 400 ppm [4] | mortality at 12.5 ppm [5] | mortality at 400 ppm [6] | mortality at 400 ppm [7] | mortality at 12.5 ppm [8] | melting point | mortality at 400 ppm [9] |
| --- | --- | --- | --- | --- | --- | --- | --- | --- | --- | --- |
| CCS(=O)(=O)c1cccnc1-c1cn2nc(C(F)(F)F)sc2n1 [Compound P2, 6-(3-ethylsulfonyl-2-pyridyl)-2-(trifluoromethyl)imidazo[2,1-b][1,3,4]thiadiazole] | at least 80% | > 80% | ≥ 80% | > 80% | ≥ 80% | > 80% | > 80% | ≥ 80% |  |  |
| CCS(=O)(=O)c1cc(C(F)(F)F)cnc1-c1nc2sc(C(F)(F)F)nn2c1C [Compound P3, 6-[3-ethylsulfonyl-5-(trifluoromethyl)-2-pyridyl]-5-methyl-2-(trifluoromethyl)imidazo[2,1-b][1,3,4]thiadiazole] |  | > 80% |  | > 80% | ≥ 80% | > 80% | > 80% |  |  |  |
| CCS(=O)(=O)c1cc(C(F)(F)F)cnc1-c1cn2nc(C(F)(F)F)sc2n1 [Compound P4] |  |  |  | > 80% |  | > 80% | > 80% |  |  |  |
| CCS(=O)(=O)c1cccnc1-c1nc2sc(C(F)(F)F)nn2c1C [Compound P5] |  | > 80% | ≥ 80% | > 80% |  | > 80% |  |  |  |  |
| CCSc1cc(C(F)(F)F)cnc1-c1cn2nc(C(F)(F)C(F)(F)F)sc2n1 [Compound P6] |  |  |  |  |  |  |  |  | 110 to 112 °C |  |
| CC[S+]([O-])c1cc(C(F)(F)F)cnc1-c1cn2nc(C(F)(F)C(F)(F)F)sc2n1 (stereo not shown) [Compound P7] |  | > 80% |  | > 80% |  | > 80% | > 80% |  |  | > 80% |
| CCS(=O)(=O)c1cc(C(F)(F)F)cnc1-c1cn2nc(C(F)(F)C(F)(F)F)sc2n1 [Compound P8] |  | > 80% |  | > 80% |  | > 80% | > 80% | ≥ 80% |  | > 80% |
| CCS(=O)(=O)c1cc(C(F)(F)F)cnc1-c1cn2cc(C(F)(F)F)sc2n1 [Compound P9, 6-[3-ethylsulfonyl-5-(trifluoromethyl)-2-pyridyl]-2-(trifluoromethyl)imidazo[2,1-b]thiazole] |  | > 80% |  | > 80% |  | > 80% | > 80% |  |  |  |
| CC[S+]([O-])c1cc(C(F)(F)F)cnc1-c1cn2cc(C(F)(F)F)sc2n1 (stereo not shown) [Compound P10] |  |  |  | > 80% |  |  |  |  |  |  |
